Paper PMC3608532, “Characterization of a Single-Chain Variable Fragment Recognizing a Linear Epitope of Aβ: A Biotechnical Tool for Studies on Alzheimer’s Disease?” (PLoS ONE, 2013)

Legend:
[1] = test system: Aβ plaques in brain cryosections of Tg2576 mice; test: Ex vivo staining of plaques in mouse brain slices; conditions: 9 or 12 months old Tg2576 mice and wildtype control, 20 µm sections; scFv-IC16 400 nM, 6E10 33 nM, 1-11-3 1:200; fluorescence microscopy
Experimental: Deep frozen horizontal brain cryosections (20 µm thickness) from 9 or 12 months old Tg2576 mice and the respective wildtype control were dried in ambient air for 15 min, and then fixed in ice-cold 4% (w/v) paraformaldehyde for 20 min. Incubation with 70% formic acid for 5 min was performed to enhance immunoreactivity. Sections were permeabilized with 1% Triton X-100 in TBS for 10 min, followed by blocking with Mouse on mouse (M.O.M.) Basic Kit (Vector Laboratories) in TBS-Triton (1%, v/v) for 30 min. Primary antibodies were diluted in 1% BSA/TBS-Triton (working concentration of ScFv: 400 nM, 6E10∶33 nM, 1-11-3 (Covance, USA) in 1∶200 dilution) and probed on the sections for 1 h, incubating at room temperature. […] For double staining, two secondary antibodies (goat anti mouse-Alexa488 and goat anti rabbit-Alexa-568 were mixed directly (working concentration of goat anti rabbit-Alexa568∶1.300). After 1 min of incubation with 0.5 µg/ml DAPI, the sections were coverslip-mounted with Aqua Poly/Mont (Polysciences Inc, Worrington, PA, USA). Sections were examined under a fluorescence microscope (Leica LMD6000 (Leica, Solms, Germany). Excitation Range: UV; blue; green. Excitation Filter: Bp 420/30; Bp 495/15; Bp 570/20) with camera (Leica DFC 310 FX). Images were processed with LAS software (Leica Application Suite, V.4.0.0) and ImageJ (1.45 s).

[2] = test system: Aβ(1-42) fibrils; test: ELISA binding to Aβ(1-42) fibrils; set-up: species or system human; conditions: 250 ng/well, 10% N-biotinylated fibrils on streptavidin plate; scFv-IC16 12 and 23 nM; Penta-His and HRP anti-mouse detection, absorbance 450 nm
Experimental: 1 mg of Aβ(1-42) or N-terminally/C-terminally biotinylated Aβ(1-42) was dissolved in 1 ml 1,1,1,3,3,3-hexafluorosiopropanol (HFIP) and incubated overnight at room temperature. Afterwards, Aβ(1-42) was mixed in the favored ratio with N-terminally/C-terminally biotinylated Aβ(1-42) and aliquoted. HFIP was evaporated using a SpeedVac (Concentrator 5301, Eppendorf, Germany) at room temperature for 30 min. To evaporate remaining HFIP, the sample was incubated overnight at room temperature with an open lid.
The preparation of Aβ(1-42) monomers and oligomers was carried out by size exclusion chromatography (SEC) as already described by Johansson et al with minor modifications. 250 µg of Aβ peptide was dissolved in 130 µl SEC buffer (50 mM NaPi, pH 7.4; 150 mM NaCl; 0.6% Tween-20) and briefly centrifuged (1 min, 16 100×g, room temperature) to remove insoluble fibrillar material. 100 µl of the supernatant was applied on a Superdex75 10/300 column (GE Healthcare, UK) connected to an Äkta purifier system (GE Healthcare, UK). The sample was eluted at a flow rate of 0.6 ml per min at room temperature and detected at wavelengths of 214, 250 and 278 nm. […] The concentration of the Aβ preparations was determined using the Micro BCA Protein Assay Kit (Thermo Scientific, Waltham, MA, USA). […] The samples were measured at a wavelength of 570 nm with a Polarstar Optima plate reader (BMG, Ortenberg, Germany). […]

scFv-IC16: single-chain variable fragment (VH-(Gly4Ser)3-VL, His6- and Myc-tag) derived from Aβ binding monoclonal antibody IC16, expressed in E. coli
plaque staining in brain cryosections [1]: detect plaques specifically | ELISA binding to Aβ fibrils [2]: preferential binding
